Source: publication PMC3684073 (Journal of agricultural and food chemistry, 2008)
Read-outs that look alike come from different tables or passages of the source.

Legend:
[1] = biological target: T1, 5-HT7 receptor (Homo sapiens, UniProt P34969); assay: 5-HT7 receptor competitive binding assay; settings: for 5-HT7 competitive binding % Inhibition ± SD: tested at 50 μM, NA = not active
[2] = biological target: T1, 5-HT7 receptor; assay: Intracellular cAMP assay in 5-HT7-transfected HEK293 cells; format: cell-based
[3] = biological target: human serotonin transporter (hSERT) (Homo sapiens, UniProt P31645); assay: cell-based
[4] = biological target: T2, 5-HT1A (Homo sapiens, UniProt P08908); assay: MDS Pharma serotonin receptor binding, 5-HT1A
T2 sequence (P08908 1-422): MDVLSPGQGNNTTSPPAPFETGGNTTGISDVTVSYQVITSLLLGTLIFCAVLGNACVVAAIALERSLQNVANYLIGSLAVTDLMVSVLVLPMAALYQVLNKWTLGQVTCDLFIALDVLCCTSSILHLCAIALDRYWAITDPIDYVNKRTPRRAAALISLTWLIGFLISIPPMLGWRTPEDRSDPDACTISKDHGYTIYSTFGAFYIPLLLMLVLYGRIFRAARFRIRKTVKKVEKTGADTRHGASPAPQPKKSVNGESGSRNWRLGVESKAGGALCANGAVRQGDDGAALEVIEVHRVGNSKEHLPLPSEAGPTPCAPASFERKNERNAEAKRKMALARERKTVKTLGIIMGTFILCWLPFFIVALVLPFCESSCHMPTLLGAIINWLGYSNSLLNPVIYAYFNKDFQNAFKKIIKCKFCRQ

[5] = biological target: 5-HT1B (Rattus norvegicus, UniProt P28564); assay: MDS Pharma serotonin receptor binding, 5-HT1B
[6] = biological target: 5-HT2B (Homo sapiens, UniProt P41595); assay: MDS Pharma serotonin receptor binding, 5-HT2B
[7] = biological target: T3, 5-HT2C (Homo sapiens, UniProt P28335); assay: MDS Pharma serotonin receptor binding, 5-HT2C
T3 sequence (P28335 33-458): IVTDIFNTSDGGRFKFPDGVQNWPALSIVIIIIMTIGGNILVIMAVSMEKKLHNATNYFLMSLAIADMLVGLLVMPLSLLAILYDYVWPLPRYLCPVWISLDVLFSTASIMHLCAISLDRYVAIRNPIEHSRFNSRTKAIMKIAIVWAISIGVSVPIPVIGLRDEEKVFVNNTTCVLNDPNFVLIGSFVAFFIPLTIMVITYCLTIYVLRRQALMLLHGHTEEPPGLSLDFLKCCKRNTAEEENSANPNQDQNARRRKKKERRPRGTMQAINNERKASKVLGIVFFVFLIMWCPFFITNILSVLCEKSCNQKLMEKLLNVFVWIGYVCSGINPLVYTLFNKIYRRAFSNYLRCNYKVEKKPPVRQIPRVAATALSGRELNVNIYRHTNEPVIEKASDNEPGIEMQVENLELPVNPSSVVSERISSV

[8] = biological target: T4, 5-HT3 (Homo sapiens, UniProt P46098); assay: MDS Pharma serotonin receptor binding, 5-HT3
T4 sequence (P46098 24-478): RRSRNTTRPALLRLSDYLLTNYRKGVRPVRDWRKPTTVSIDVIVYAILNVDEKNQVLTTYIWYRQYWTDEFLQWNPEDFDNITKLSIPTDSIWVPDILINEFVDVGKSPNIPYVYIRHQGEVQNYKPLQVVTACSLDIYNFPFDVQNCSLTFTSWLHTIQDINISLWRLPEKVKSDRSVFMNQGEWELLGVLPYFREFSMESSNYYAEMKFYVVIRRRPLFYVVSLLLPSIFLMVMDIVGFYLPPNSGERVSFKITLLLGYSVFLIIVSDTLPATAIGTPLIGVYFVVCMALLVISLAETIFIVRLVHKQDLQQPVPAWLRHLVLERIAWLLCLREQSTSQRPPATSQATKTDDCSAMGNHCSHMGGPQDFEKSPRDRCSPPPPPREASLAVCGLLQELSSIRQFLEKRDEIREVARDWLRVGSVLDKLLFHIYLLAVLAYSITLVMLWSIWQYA

[9] = biological target: 5-HT4 (Cavia porcellus, UniProt O70528); assay: MDS Pharma serotonin receptor binding, 5-HT4
[10] = biological target: 5-HT5A (Homo sapiens, UniProt P47898); assay: MDS Pharma serotonin receptor binding, 5-HT5A
[11] = biological target: 5-HT6 (Homo sapiens, UniProt P50406); assay: MDS Pharma serotonin receptor binding, 5-HT6
[12] = read-out: 5-HT7 receptor binding IC50, pure compounds

In the case of 23-O-acetylshengmanol-3-β-D-xyloside, the “5-HT7 competitive binding % Inhibition ± SD” value [1] is reported as 35 ± 10%.
For 25-anhydrocimigenol-3-O- β-xyloside, the “5-HT7 competitive binding % Inhibition ± SD” value [1] was 31 ± 8%.
CC(=O)O[C@@H]1C[C@@]23C[C@@]24CC[C@H](O[C@@H]2OC[C@@H](O)[C@H](O)[C@H]2O)C(C)(C)[C@@H]4CC[C@H]3[C@]2(C)C[C@@H]3O[C@@]4(C[C@@H](C)[C@@H]3[C@@]12C)OC[C@@]1(C)O[C@@H]41 [23-epi-26-deoxyactein] showed an IC50 [1, 12] of no less than 100000 nM.
With CC(=O)O[C@@H]1C[C@@]23C[C@@]24CC[C@H](O[C@@H]2OC[C@@H](O)[C@H](O)[C@H]2O)C(C)(C)[C@@H]4CC[C@H]3[C@]2(C)C[C@@H]3O[C@]4(C[C@@H](C)[C@@H]3[C@@]12C)OC[C@@]1(C)O[C@@H]41 [26-deoxyactein] the IC50 [1, 12] was no less than 100000 nM and the “5-HT7 competitive binding % Inhibition ± SD” value [1] was 38 ± 4%.
COc1cc(/C=C/C(=O)O[C@H](C(=O)O)[C@](O)(Cc2ccc(O)c(O)c2)C(=O)O)ccc1O [Cimicifugic acid A, cimicifugic acid A] was tested, and the IC50 [1] was greater than 500000 nM.
For COc1ccc(/C=C/C(=O)O[C@H](C(=O)O)[C@](O)(Cc2ccc(O)c(O)c2)C(=O)O)cc1O [Cimicifugic acid B, cimicifugic acid B], the IC50 [1] was greater than 500000 nM.
For COc1cc(/C=C/C(=O)O[C@H](C(=O)O)[C@](O)(Cc2ccc(O)cc2)C(=O)O)ccc1O [Cimicifugic acid E, cimicifugic acid E], the IC50 [1] was greater than 500000 nM.
In the case of COc1ccc(/C=C/C(=O)O[C@H](C(=O)O)[C@](O)(Cc2ccc(O)cc2)C(=O)O)cc1O [Cimicifugic acid F, cimicifugic acid F], the IC50 [1] is reported as greater than 500000 nM.
For CC(=O)O[C@@H]1C[C@@]23C[C@@]24CC[C@H](O[C@@H]2OC[C@H](O)[C@H](O)[C@H]2O)C(C)(C)[C@@H]4CC[C@H]3[C@]2(C)C[C@@H]3O[C@]4(C[C@@H](C)[C@@H]3[C@@]12C)OC[C@]1(C)O[C@H]41 [Cimiracemoside N], the “5-HT7 competitive binding % Inhibition ± SD” value [1] was 18 ± 4%.
CC(=O)O[C@@H]1CO[C@@H](O[C@H]2CC[C@]34C[C@]35C[C@@H](OC(C)=O)[C@]3(C)[C@H]6[C@H](C)C[C@]7(OC(O)[C@]8(C)O[C@H]78)O[C@H]6C[C@@]3(C)[C@@H]5CC[C@H]4C2(C)C)[C@H](O)[C@H]1O (stereo partly drawn) [Cimiracemoside O] was tested, and the “5-HT7 competitive binding % Inhibition ± SD” value [1] was 19 ± 5%.
CNCCc1c[nH]c2ccc(O)cc12 [Nω-methylserotonin, 3-(2-Methylaminoethyl)indol-5-ol] showed an IC50 ([1]; 5-HT7 receptor binding IC50) of 0.023 nM, an IC50 ([1]; IC50, 5-HT7, triplicate in three independent experiments) of 0.02 nM and an EC50 [2] of 22 nM. The “maximum cAMP induction” value ([2]; at 100 nM, the highest tested concentration) was 43 pmol/mL, the IC50 [3] was 490 nM and the IC50 [4] was 2 nM. For the same molecule, the IC50 [5] was 15 nM, the IC50 [6] was 97 nM and the IC50 [7] was 101 nM. For the same molecule, the IC50 [8] was 1670 nM, the IC50 [9] was 6700 nM and the IC50 [10] was 289 nM. It also gave an IC50 [11] of 55 nM.
O=C(/C=C/c1ccc(O)c(O)c1)O[C@H](C(=O)O)[C@](O)(Cc1ccc(O)c(O)c1)C(=O)O [fukinolic acid] was tested, and the IC50 [1] was 100000 nM.
Molecule Actein (R,S) has an IC50 [1, 12] of no less than 100000 nM.
